Reference: patent US5008247A, “Polysulfuric acid esters of bis-aldonamides and their derivatives, process for their preparation and medicaments” (Luitpold-Werk Chemisch-pharmazeutische Fabrik GmbH & Co., priority 1987, dated 1991)
Read-outs that look alike come from different tables or passages of the source.

What was measured:
[1] = system: radical formation by leucocytes; test: Test on anti-inflammatory action: inhibition of luminol-potentiated chemiluminescence in whole blood; format: cell-based, rabbit; settings: Oryctolagus cuniculus, Leucocyte, 1.5 h, read-out: IC50 (50% inhibition of luminol-potentiated chemiluminescence)
[2] = system: blood clotting (activated clotting system); test: Clotting test, activated partial thromboplastin time (aPTT); format: biochemical; settings: prolongation of 150% of the blank value as reference point; converted by heparin calibration curve
Method: The inhibition of blood clotting can be measured in a simple manner by means of the activated partial thromboplastin time aPTT. It gives information about the general inhibition of the activated clotting system. In order to decrease the incidence of hemorrhages, as low as possible an inhibition of blood clotting is desired.
Clotting test, aPTT 0.1 ml of plasma and 0.1 ml of Pathromtin^R (Behringwerke, Marburg) are incubated at 37° C. for 2 minutes and 0.1 ml of 25 mM CaCl2 solution is added. The clotting time is measured in a Schnitger & Gross coagulometer. The agent is made up for 5 individual determinations per concentration.
The prlongation of the clotting time is converted into heparin units by means of a calibration curve.

[3] = system: fibrinolysis (plasminogen-containing fibrin plates, human standard plasma); test: Fibrinolysis test (lysis haloes on plasminogen-containing fibrin plates); format: biochemical; settings: area of lysis haloes less lysis area without substance, 24 hours at 37° C.
Source text: The formation of a clinically manifest (relatively large) thrombus can be prevented in various ways. For one, the factors which are involved in the formation of the primary thrombus, such as blood platelet aggregation or the blood clotting system, can be eliminated. On the other hand, the dissolution of the primary thrombus can be accelerated by potentiating endogeneous fibrinolysis. A potentiation of endogeneous fibrinolysis can also serve to dissolve already clinically manifest thrombi again. The fibrinolytic action of a substance is thus of great significance in the prophylaxis and therapy of thrombosis. The fibrinolytic action of the substances according to the invention was determined in the test below.
Fibrinolysis was determined by means of plasminogen-containing fibrin plates.
Petri dishes, dia. 9 cm, were prewarmed to 40° C. 3 ml of a 2% solution of fibrinogen (Behringwerke, Marburg) in water, 1 ml of a plasminogen solution, 2 CTA/ ml (Behringwerke, Marburg), 3 ml of a 1% agarose solution (Serva, Heidelberg) in 50 mM TRIS/HCl, pH 7.8 and 1 ml of a solution of 15 U/ml of thrombin (Behringwerke, Marburg) in water were pipetted into the dishes with swirling. After cooling the plates, wells of 5 mm diameter were punched out.
0.1 ml of plasma (human standard plasma, Behringwerke, Marburg), 0.8 ml of water and 0.1 ml of solution of the test substance in various concentrations were incubated for 10 minutes at 37° C. […] The precipitate was taken up in 0.1 ml of buffer (20 mM TRIS/HCl, 100 mM NaCl, 2.7 mM EDTA, pH 7.8).
After 24 hours at 37° C., the lysis haloes were planimetered. The areas of the lysis haloes less the lysis areas without addition of substance serve as a measure for the fibrinolysis-increasing activity.

[4] = system: blood clotting (activated clotting system); settings: standard heparin from the firm Pharmindustrie; cited from earlier work
bleeding time = test: Influence on the bleeding time (rat tail); format: in vivo; settings: rats, 5 minutes before bleeding, compared to control
Method: A piece of tail about 2 mm long was cut from rats. The time until bleeding had stopped was measured. The test substance in various concentrations or physiological saline solution (control) was administered to the animals 5 minutes before causing the bleeding. Groups of 20 animals were treated. The proiongalion of the bleeding time compared to the control was expressed in percent.

Molecule	IC50 [1]	heparin units (inhibition of blood clotting, aPTT) [2]	Fibrinolysis at 2 μg/ml [3]	further results
O=C(NCCCCCCCCCCCCNC(=O)[C@H](OS(=O)(=O)O)[C@@H](OS(=O)(=O)O)[C@H](O[C@@H]1O[C@H](COS(=O)(=O)O)[C@H](OS(=O)(=O)O)[C@H](OS(=O)(=O)O)[C@H]1OS(=O)(=O)O)[C@@H](COS(=O)(=O)O)OS(=O)(=O)O)[C@H](OS(=O)(=O)O)[C@@H](OS(=O)(=O)O)[C@H](O[C@@H]1O[C@H](COS(=O)(=O)O)[C@H](OS(=O)(=O)O)[C@H](OS(=O)(=O)O)[C@H]1OS(=O)(=O)O)[C@@H](COS(=O)(=O)O)OS(=O)(=O)O.[Na].[Na].[Na].[Na].[Na].[Na].[Na].[Na].[Na].[Na].[Na].[Na].[Na].[Na].[Na].[Na] [Example 25, Hexadecasodium N,N'-1,12-dodecanediylbis-[2,3,5,6-tetra-O-sulfo-4-O-(2,3,4,6-tetra-O-sulfo-β-D-galactopyranosyl)-D-gluconamide]]	155 µg/mL	5.85 u/mg	–	–
O=C(NCCCCCCNC(=O)[C@H](OS(=O)(=O)O)[C@@H](OS(=O)(=O)O)[C@H](O[C@@H]1O[C@H](COS(=O)(=O)O)[C@H](OS(=O)(=O)O)[C@H](OS(=O)(=O)O)[C@H]1OS(=O)(=O)O)[C@@H](COS(=O)(=O)O)OS(=O)(=O)O)[C@H](OS(=O)(=O)O)[C@@H](OS(=O)(=O)O)[C@H](O[C@@H]1O[C@H](COS(=O)(=O)O)[C@H](OS(=O)(=O)O)[C@H](OS(=O)(=O)O)[C@H]1OS(=O)(=O)O)[C@@H](COS(=O)(=O)O)OS(=O)(=O)O.[Na].[Na].[Na].[Na].[Na].[Na].[Na].[Na].[Na].[Na].[Na].[Na].[Na].[Na].[Na].[Na] [Example 23, Hexadecasodium N,N'-1,6-hexanediylbis-[2,3,5,6-tetra-O-sulfo-4-O-(2,3,4,6-tetra-O-sulfo-β-D-galactopyranosyl)-D-gluconamide]]	225 µg/mL	30.9 u/mg	21.6 mm^2	–
COc1ccc2c(c1)c(CC(=O)O)c(C)n2C(=O)c1ccc(Cl)cc1 [Indomethacin, reference compound]	–	–	–	IC50 ([1]; zymosan-stimulated citrated rabbit blood, maximum chemiluminescence over 90 minutes): 240 µg/mL
O=C(NCCCCCCCCCNC(=O)[C@H](OS(=O)(=O)O)[C@@H](OS(=O)(=O)O)[C@H](O[C@@H]1O[C@H](COS(=O)(=O)O)[C@H](OS(=O)(=O)O)[C@H](OS(=O)(=O)O)[C@H]1OS(=O)(=O)O)[C@@H](COS(=O)(=O)O)OS(=O)(=O)O)[C@H](OS(=O)(=O)O)[C@@H](OS(=O)(=O)O)[C@H](O[C@@H]1O[C@H](COS(=O)(=O)O)[C@H](OS(=O)(=O)O)[C@H](OS(=O)(=O)O)[C@H]1OS(=O)(=O)O)[C@@H](COS(=O)(=O)O)OS(=O)(=O)O.[Na].[Na].[Na].[Na].[Na].[Na].[Na].[Na].[Na].[Na].[Na].[Na].[Na].[Na].[Na].[Na] [Example 24, Hexadecasodium N,N'-1,9-nonanediylbis-[2,3,5,6-tetra-O-sulfo-4-O-(2,3,4,6-tetra-O-sulfo-β-D-galactopyranosyl)-D-gluconamide]]	220 µg/mL	14.1 u/mg	17.8 mm^2	–
O=C(NC1CCC(CC2CCC(NC(=O)[C@H](OS(=O)(=O)O)[C@@H](OS(=O)(=O)O)[C@H](O[C@@H]3O[C@H](COS(=O)(=O)O)[C@H](OS(=O)(=O)O)[C@H](OS(=O)(=O)O)[C@H]3OS(=O)(=O)O)[C@@H](COS(=O)(=O)O)OS(=O)(=O)O)CC2)CC1)[C@H](OS(=O)(=O)O)[C@@H](OS(=O)(=O)O)[C@H](O[C@@H]1O[C@H](COS(=O)(=O)O)[C@H](OS(=O)(=O)O)[C@H](OS(=O)(=O)O)[C@H]1OS(=O)(=O)O)[C@@H](COS(=O)(=O)O)OS(=O)(=O)O (stereo partly drawn) [Example 31, Hexadecasodium N,N'-4,4-dicylcohexylmethanediylbis-[2,3,5,6-tetra-O-sulfo-4-O-(2,3,4,6-tetra-O-sulfo-β-D-galactopyranosyl)-D-gluconamide]]	–	10.2 u/mg	–	–
Heparin [reference compound]	–	175 u/mg	14.8 mm^2	heparin activity of the standard [4]: 175 U/mg; Lengthening of the bleeding time (bleeding time; Dose 0.25 mg/kg): 55.4%; Lengthening of the bleeding time (bleeding time; Dose 0.5 mg/kg): 120%
O=C(NCCCOCCCCOCCCNC(=O)[C@H](OS(=O)(=O)O)[C@@H](OS(=O)(=O)O)[C@H](O[C@@H]1O[C@H](COS(=O)(=O)O)[C@H](OS(=O)(=O)O)[C@H](OS(=O)(=O)O)[C@H]1OS(=O)(=O)O)[C@@H](COS(=O)(=O)O)OS(=O)(=O)O)[C@H](OS(=O)(=O)O)[C@@H](OS(=O)(=O)O)[C@H](O[C@@H]1O[C@H](COS(=O)(=O)O)[C@H](OS(=O)(=O)O)[C@H](OS(=O)(=O)O)[C@H]1OS(=O)(=O)O)[C@@H](COS(=O)(=O)O)OS(=O)(=O)O [Example 34, Hexadecasodium N,N'-1,12-(4,9-dioxadodecanediylbis)[2,3,5,6-tetra-O-sulfo-4-O-(2,3,4,6-tetra-O-sulfo-β-D-galactopyranosyl)-D-gluconamide]]	–	15.1 u/mg	–	–
O=C(NCCCNC(=O)[C@H](OS(=O)(=O)O)[C@@H](OS(=O)(=O)O)[C@H](O[C@@H]1O[C@H](COS(=O)(=O)O)[C@H](OS(=O)(=O)O)[C@H](OS(=O)(=O)O)[C@H]1OS(=O)(=O)O)[C@@H](COS(=O)(=O)O)OS(=O)(=O)O)[C@H](OS(=O)(=O)O)[C@@H](OS(=O)(=O)O)[C@H](O[C@@H]1O[C@H](COS(=O)(=O)O)[C@H](OS(=O)(=O)O)[C@H](OS(=O)(=O)O)[C@H]1OS(=O)(=O)O)[C@@H](COS(=O)(=O)O)OS(=O)(=O)O.[Na].[Na].[Na].[Na].[Na].[Na].[Na].[Na].[Na].[Na].[Na].[Na].[Na].[Na].[Na].[Na] [Example 20, Hexadecasodium N,N'-1,3-propanediylbis-[2,3,5,6-tetra-O-sulfo-4-O-(2,3,4,6-tetra-O-sulfo-β-D-galactopyranosyl)-D-gluconamide]]	540 µg/mL	42.1 u/mg	19.2 mm^2	Lengthening of the bleeding time (bleeding time; Dose 0.5 mg/kg): 5.1%; Lengthening of the bleeding time (bleeding time; Dose 2 mg/kg): 35.1%
